The test system of one data set is gut microbiota. Briefly: Fecal gut microbiota analysis after ceftriaxone treatment (16S rRNA, bacterial load). The following applies: ceftriaxone sodium 400 mg/kg/day orally, 2 weeks; feces of WKYs and SHRs. It counts as in vivo, rat.
A short description of data set [1]: Body weight and blood pressure during ceftriaxone treatment. As to conditions: ceftriaxone sodium 400 mg/kg/day orally, 2 weeks; WKYs and SHRs.
Data set [2] in a line: Metabolites detection in vivo in plasma, feces and urine (UHPLC-Q-TOF-MS). As to conditions: single oral losartan potassium 20 mg/kg. The arrangement: species or system rat. The procedure:
For urine and feces, cumulative samples were collected over the following time intervals: 0–4, 4–8, 8–12, and 12–24 h after administration. The processing of the biological samples can be found in the Supplementary material.
The biological samples were processed as follows: For plasma, a total of 400 μL of pooled plasma was mixed by combining 50 μL aliquots from each time point. A 100 μL aliquot was mixed with 300 μL of methanol, vortexed for one minute, and centrifuged at 5,000 rpm for 10 minutes at 4°C [1]. In the case of urine, 1 mL was centrifuged at 4,000 rpm for 20 minutes at 4°C, and the supernatant was mixed with 2 mL of methanol, vortexed for one minute, and centrifuged at 12,000 rpm for 10 minutes at 4°C [2]. For fecal samples, 1.0 g of homogenized feces was extracted with 4 mL of methanol, sonicated in an ice-water bath for 20 minutes, and then centrifuged at 12,000 rpm for 10 minutes at 4°C [3]. Supernatants from the plasma, urine, and fecal extracts were evaporated under nitrogen gas, redissolved in methanol, and transferred to liquid chromatography vials. Samples were analyzed using UHPLC-Q-TOF-MS/MS for metabolite profiling.

The nature of data set [3]: Stability of the analytes in rat plasma at different storage conditions. The format is in vitro ADME. The procedure: Analysis of QC samples was performed according to a standard curve, which was obtained from freshly prepared calibration standard samples. The autosampler stability was determined by placing samples in the autosampler rack at 8 ℃ for 24 h. The freeze-thaw stability was evaluated after three complete freeze-thaw cycles (-80 ℃ to 25 ℃) on consecutive days. The short-term stability was determined after samples were exposed to room temperature for 6 h. The long-term stability was assessed after storing the samples at -80 ℃ for 30 days. The analytes were considered stable if the deviation between the mean measured concentration and the nominal concentration was within ± 15.0%.

A short description of the next data set: in vivo. The following applies: for MRT last: MRT0-t; for MRT inf: MRT 0-∞; for half-life: t1/2z. The procedure:
The pharmacokinetic study was described as follows.
The UHPLC-TQ-MS analysis was conducted on an LC-30 AD ultra high-performance liquid chromatograph (Shimadzu, Japan) connected to an AB 4500 (AB Sciex, United States) Triple Quadrupole Mass Spectrometer with an ESI source. Chromatographic separation was achieved on an Acquity UHPLC HSS T3 column (100 × 2.1 mm, 1.8 μm) at 40 °C, and the eluent was aqueous formic acid (100:0.1, v/v) (A) and acetonitrile with formic acid (100:0.1, v/v) (B) at a flow rate of 0.3 mL min^−1. Gradient elution differs in the calculation of residual content and pharmacokinetic experiments. MRM mode was employed. Data processing was performed using Analyst Software (AB Sciex). The UHPLC-TQ-MS method validation was conducted in terms of selectivity, linearity, carryover, accuracy and precision, matrix effect, extraction recovery, dilution integrity, and stability under various conditions, which was performed in line with the FDA guidelines for bioanalytical assays. More details were described in the Supplementary material method.
The comparisons of the relative abundance of the genera between different groups were performed using the Wilcoxon rank-sum test. Comparisons between WKY and SHRs before and after CRO treatment were conducted using either a t-test or one-way ANOVA, with p values < 0.05 considered statistically significant. […] Graphs were created using GraphPad Prism 8.0 software.
For the determination of drug remaining contents in the supernatant, the gradient elution was as follows: 0.1–0.5 min at 45% B; 0.5–1.0 min at 45–65% B; 1.5–4.0 min at 65–85% B; 4.0–4.5 min at 85% B; 4.5–4.6 min at 85%–45% B; 4.6–5.0 min at 45% B. For pharmacokinetics, the gradient elution was performed as follows: 0–0.5 min at 30% B; 0.5–1.5 min at 30–45% B; 1.5–5.0 min at 45–60% B; 5.0–7.0 min at 60–80% B; 7.0–8.0 min at 80% B; 8.1–10.0 min at 30% B. The injection volume was 5 μ L. The multiple reaction monitoring (MRM) mode was used to detect analytes and IS in the positive ion mode. The mass spectrometry parameters were set as follows: ion spray voltage was 5500 V, turbo spray temperature (TEM) of 550℃; nebulizer gas (gas 1) of 50 psi; heater gas (gas 2) of 50 psi and curtain gas of 40 psi. Nitrogen was kept as the nebulizer and auxiliary gas.

On the set-up of data set [4]: method as in Yoo et al., 2016. The following applies: ref Yoo et al., 2016; cited from earlier work.
The mark [5] stands for this setting: SHR, rat, in vivo, po, 20 mg/kg.
Setting [6] is: WKY, rat, in vivo, po, 20 mg/kg.

The values below come from PMC12705613 (Frontiers in Microbiology, 2025).

Structures can show the parent of a compound that is named as a salt.

Description for gut microbiota: Fecal samples were freshly collected, rapidly frozen, and weighed before storage at −80 °C until use. The absolute quantification of bacterial 16S rRNA amplicon sequencing was conducted by Majorbio Bio-Pharm Technology Co. Ltd. in Shanghai, China. Total microbial genomic DNA was extracted using the E. Z. N. A.® Soil DNA Kit, following the manufacturer’s guidelines. The quality and concentration of the extracted DNA were assessed through 1.0% agarose gel electrophoresis and with a NanoDrop 2000 spectrophotometer. RT-PCR was performed using universal 16S primers (Forward: 5′-[sequence]-3′, Reverse: 5′-[sequence]-3′) ([Nadkarni et al., 2002]). The relative bacterial load was determined by normalizing the DNA content against the weight of feces from the untreated group.
Fecal DNA was extracted utilizing the E. Z. N. A.® Soil DNA Kit. The extracted DNA was analyzed using a 1% agarose gel, and its concentration and purity were assessed with NanoDrop2000 spectrophotometer. […] The resulting PCR products were purified, quantified, and homogenized to create a sequencing library, which was commissioned to Majorbio Bio Pharm Technology Co. Ltd. The sequencing data were processed using the DADA2 algorithm in Qiime 2 to obtain amplicon sequence variants (ASVs), followed by the removal of chloroplast and mitochondrial sequences. […]

With `CO/N=C(\C(=O)N[C@@H]1C(=O)N2C(C(=O)O)=C(CSc3nc(=O)c(=O)[nH]n3C)CS[C@H]12)c1csc(N)n1` [CRO, ceftriaxone disodium salt hemiheptahydrate], the “α-diversity (Chao1, Shannon index) and bacterial abundance” value with gut microbiota is recorded as “significant reduction”. Also, the “Body weight, CRO-treated vs untreated” value in data set [1] is on record as “no differences in body weight”.
`CCCCc1nc(Cl)c(C=O)n1Cc1ccc(-c2ccccc2-c2nn[nH]n2)cc1` [E-3179]: in data set [2], the “Abundance in feces and plasma, SHRs vs WKYs” value is “lower in SHRs than in WKYs”. For the same molecule, the “Abundance in urine, SHRs vs WKYs” value in data set [2] is “more abundant in urine”. The “Stability RE” value was 2.34% in data set [3] (autosampler for 24 h (8 ℃), high nominal conc. (losartan 8000, E-3174 4000, E-3179 1600 ng/mL)); 2.96% in data set [3] (autosampler for 24 h (8 ℃), low nominal conc. (losartan 0.2, E-3174 10, E-3179 0.4 ng/mL)); 12.05% in data set [3] (autosampler for 24 h (8 ℃), middle nominal conc. (losartan 2000, E-3174 1000, E-3179 400 ng/mL)); -10.69% in data set [3] (room temperature for 6 h, high nominal conc. (losartan 8000, E-3174 4000, E-3179 1600 ng/mL)); -2.22% in data set [3] (room temperature for 6 h, low nominal conc. (losartan 0.2, E-3174 10, E-3179 0.4 ng/mL)); 4.87% in data set [3] (room temperature for 6 h, middle nominal conc. (losartan 2000, E-3174 1000, E-3179 400 ng/mL)). The “Stability RE” value in data set [3] (three freeze-thaw cycles, high nominal conc. (losartan 8000, E-3174 4000, E-3179 1600 ng/mL)) is 6.66%; in data set [3] (three freeze-thaw cycles, low nominal conc. (losartan 0.2, E-3174 10, E-3179 0.4 ng/mL)), 2.96%; in data set [3] (three freeze-thaw cycles, middle nominal conc. (losartan 2000, E-3174 1000, E-3179 400 ng/mL)), 2.84%; in data set [3] (−80°C for 30 days, high nominal conc. (losartan 8000, E-3174 4000, E-3179 1600 ng/mL)), 7.58%; in data set [3] (−80°C for 30 days, low nominal conc. (losartan 0.2, E-3174 10, E-3179 0.4 ng/mL)), 3.27%; in data set [3] (−80°C for 30 days, middle nominal conc. (losartan 2000, E-3174 1000, E-3179 400 ng/mL)) it was 9.16%. Also, the “AUC0-∞” value in the data set “in vivo” (setting [5]) came to 900.54 ± 226.29 ng·h/mL. In addition, the area under the curve AUC(0-t) (commonly the area under the concentration-time curve up to a stated or last time point) in the data set “in vivo” (setting [5]) stood at 850.57 ± 189.22 ng·h/mL; in the data set “in vivo” (WKY, rat, in vivo, po, 20 mg/kg, AUC0-t) it was 1340 ± 741 ng·h/mL. The highest concentration (Cmax) (usually the highest concentration seen after dosing) in “in vivo” (setting [5]) is recorded as 143.43 ± 108.27 ng/mL; in “in vivo” (setting [6]) it was 310.47 ± 243.53 ng/mL. The MRT0-t is 7.68 ± 1.38 h in “in vivo” (setting [5]) and 10.46 ± 1.03 h in “in vivo” (setting [6]). Besides, the results for the “MRT 0-∞” value in “in vivo” (setting [5]) and in the data set “in vivo” (setting [6]) were 11.33 ± 2.86 h and 15.25 ± 4.02 h, respectively. Besides, the time of peak concentration (Tmax) (commonly the time from dosing to the highest level) in the data set “in vivo” (setting [5]) worked out at 1.96 ± 1.15 h; in the data set “in vivo” (SHR, rat, in vivo, po, 20 mg/kg, Tmax), 1.83 ± 1.69 h. The t1/2z in “in vivo” (setting [5]) is 5.61 ± 3.15 h; in the data set “in vivo” (setting [6]), 5.29 ± 1.44 h. For the same molecule, the MRT last (in general, the average time that molecules of a dose stay in the body) is 6.99 ± 1.41 h in the data set “in vivo” (setting [5]) and 6.18 ± 1.58 h in “in vivo” (setting [6]). The mean residence time (MRT inf) (as a rule, a mean duration of stay, worked out from the concentration-time curve) in “in vivo” (setting [5]) stood at 9.57 ± 2.83 h; in the data set “in vivo” (setting [6]), 8.79 ± 4.19 h. In addition, the values for the half-life in the data set “in vivo” (setting [5]) and in the data set “in vivo” (setting [6]) were 5.51 ± 2.46 h and 5.75 ± 2.71 h, respectively. Moreover, in “in vivo” (SHRs compared to WKYs, losartan potassium 20 mg/kg intragastric), the “Decrease of AUC0-∞” value is listed as 36.13%. In “in vivo” (WKY, rat, in vivo, po, 20 mg/kg, AUC0-∞), the area under the curve AUC(0-inf) (commonly the area under the concentration-time curve extrapolated to infinity) was 1410 ± 741 ng·h/mL.
Turning to `CCOC(=O)C1=C(COCCN)NC(C)=C(C(=O)OC)C1c1ccccc1Cl` (centres unmarked) [amlodipine], in data set [4], the “Systemic exposure in antibiotic-treated rats vs controls” value is listed as “significantly elevated”.
